Measured values published in publication PMC10143968, “Chamigrane-Type Sesquiterpenes from Laurencia dendroidea as Lead Compounds against Naegleria fowleri” (Marine Drugs, 2023).
Where two headings read alike, the source gives them in different places. One block for each compound: values may come before it.

Experiments:
N. fowleri ATCC 30808™ = test: In vitro activity against Naegleria fowleri trophozoites (alamarBlue), ATCC 30808 strain; type: cell-based; conditions: for IC50: trophozoites, alamarBlue, 48 h, 37 °C, read-out: 50% inhibitory concentration (IC50) against N. fowleri ATCC 30808™
Procedure: (§1) The in vitro experiments were carried out using two different Naegleria fowleri type strains, ATCC 30808™ and ATCC 30215™. The cells were grown in axenic conditions as previously described in other works of our group. The strains were cultured in a level 3 biological security facility at the Instituto Universitario de Enfermedades Tropicales y Salud Pública de Canarias, Universidad de La Laguna, Spain.
(§2) An alamarBlue™-based colorimetric assay was used to determine the in vitro activity of the chamigrane-type sesquiterpenes. Briefly, a known concentration of the trophozoites (2 × 10^5 cells/mL) was incubated with serial dilutions of the compounds. After, the alamarBlue™ reagent was added and the plate was placed at 37 °C for 48 h. Finally, the fluorescence was read and a non-linear regression analysis with a 95% confidence limit, in order to reckon the 50% and 90% inhibitory concentration (IC50 and IC90), was performed.
(§3) The in vitro IC50, IC90 and CC50 were determined by a non-linear regression analysis with a 95% of confidence limit using the Graphpad Prism version 9.0 (GraphPad Software; CA; USA). Three independent experiments were performed to obtain each data, which is expressed as mean ± standard deviation (SD).

[1] = system: Murine Macrophages J774.A1; test: In vitro cytotoxicity (alamarBlue); type: cell-based; conditions: mouse, 24 h
Procedure: (§4) The cytotoxicity assays were carried out in a murine macrophages cell line (ATCC TIB-67). The cells were incubated in Dulbecco’s Modified Eagle’s medium (GIBCO, Thermo Fisher Scientific, Madrid, Spain) (DMEM, w/v) supplemented with 10% (v/v) fetal bovine serum (FBS) and 10 µg/mL of gentamicin (Sigma-Aldrich, Madrid, Spain) at 37 °C in a 5% of CO2 atmosphere. The in vitro cytotoxicity of the compounds was determined following the alamarBlue ™ protocol mentioned in the previous section. Murine macrophages were incubated with serial dilutions of the evaluated molecules for 24 h at 37 °C and in presence of 5% of CO2. Finally, the 50% cytotoxic concentration (CC50) was determined after reading the fluorescence. The in vitro IC50, IC90 and CC50 were determined by a non-linear regression analysis with a 95% of confidence limit using the Graphpad Prism version 9.0 (GraphPad Software; CA; USA). Three independent experiments were performed to obtain each data, which is expressed as mean ± standard deviation (SD).

N. fowleri ATCC 30215™ = test: In vitro activity against Naegleria fowleri trophozoites (alamarBlue), ATCC 30215 strain; type: cell-based; conditions: 37 °C, read-out: 50% inhibitory concentration (IC50) against N. fowleri ATCC 30215™
Procedure: as §1, §2, §3

[2] = system: Naegleria fowleri (ATCC 30808™) trophozoites; type: cell-based; conditions: not told
Procedure: (§5) For the determination of the type of cell death that induces (+)-elatol (1), different commercial kits were used. […] Next, the reagents corresponding to each kit were added, allowing the appearance of programmed cell death (PCD) processes in the cells to be observed. Moreover, the percentage of stained cells was determined using the EVOS™ M5000 Software (Invitrogen by Thermo Fisher Scientific). All experiments were performed in triplicate and five different images (×40) were processed each time.
The permeability of the plasma membrane was assessed with the SYTOX Green® stain. The plasma membrane is impermeable to the dye in healthy conditions. However, when the permeability of the plasma membrane is compromised, the SYTOX Green® enters the cells, binds the DNA and emits an intense green fluorescence at 523 nm wavelength.
(§6) The percentage of stained cells determination in the PCD assays was calculated using the EVOS™ M5000 Software (Invitrogen by Thermo Fisher Scientific). […] The bar graph of the mitochondrial membrane potential evaluation illustrates the mean fluorescence and SD emitted by the aggregate and monomer forms of the JC-1 stain. […] Moreover, in all the PCD assays, a one-way analysis of variance (ANOVA) was assessed to study the differences between the treated and negative control trophozoites. ** p < 0.01; *** p < 0.001; **** p < 0.0001 significant differences.

[3] = system: Naegleria fowleri ATCC 30808™ trophozoites; test: Mitochondrial membrane potential (JC-1); type: cell-based; conditions: IC90 (2.45 µM), 24 h
Procedure: as §5
For determining mitochondrial damage in treated amoebae, two different assays were performed. Firstly, to measure the collapse of the transmembrane electrochemical gradient, a lipophilic cationic dye called JC-1 (Cayman Chemicals Vitro SA, Madrid, Spain) was used. […] When the membrane potential is high, the fluorophore will be found in the mitochondria in the j-aggregates form emitting red fluorescence at 595 nm. On the other hand, when membrane depolarization occurs, the reagent disperses and remains in its monomeric form showing green fluorescence at 535 nm.
The percentage of stained cells determination in the PCD assays was calculated using the EVOS™ M5000 Software (Invitrogen by Thermo Fisher Scientific). […] The bar graph of the mitochondrial membrane potential evaluation illustrates the mean fluorescence and SD emitted by the aggregate and monomer forms of the JC-1 stain. […]

[4] = system: Naegleria fowleri ATCC 30808™ trophozoites; test: ATP production (CellTiter-Glo); type: cell-based; conditions: IC90 (2.45 µM), 24 h
Procedure: as §5
Afterwards, to validate the mitochondrial damage, the levels of ATP produced in the amoebae treated with the IC90 of the compound were analyzed using the CellTiter-Glo® Luminescent Cell Viability Assay reagent (Promega Biotech Ibérica S.L, Madrid, Spain) following manufacturer’s instructions.

[5] = system: Naegleria fowleri cysts (ATCC 30808™); test: In vitro cysticidal activity (alamarBlue fluorometric assay); type: cell-based; conditions: ATCC30808, ATCC 30808™ cysts, 24 h incubation then 72 h with alamarBlue, read-out: IC50 against N. fowleri cysts (cysticidal activity)
Procedure: For the in vitro cysticidal activity assays, the Naegleria fowleri ATCC 30808™ strain was used. Cysts were obtained transferring the bactocasitone grown trophozoites to the MYAS medium and keeping them for ten days in slight agitation. The in vitro activity of the compounds against the Naegleria fowleri cyst was determined using an alamarBlue™-based fluorometric assay as previously described. Mature cysts were incubated with serial dilutions of the evaluated compound for 24 h at 37 °C. After that, the medium was removed and fresh bactocasitone was added. Later, the alamarBlue® reagent was placed and the plates were incubated for 72 additional hours at 37 °C. Finally, the EnSpire Multimode Plate Reader (PerkinElmer, Madrid, Spain) was used to read the fluorescence and calculate the IC50 as described in Section 4.3. The in vitro IC50, IC90 and CC50 were determined by a non-linear regression analysis with a 95% of confidence limit using the Graphpad Prism version 9.0 (GraphPad Software; CA; USA). Three independent experiments were performed to obtain each data, which is expressed as mean ± standard deviation (SD).

[6] = system: Naegleria fowleri ATCC 30808™ trophozoites; test: Reactive oxygen species production (CellROX Deep Red); type: cell-based; conditions: IC90 (2.45 µM), 24 h
Procedure: as §5
To determine the oxidative damage, the CellROX Deep Red fluorescent assay (Thermo Fisher Scientific) was used. […] These reagents produce red fluorescence with maximum absorption/emission peaks of ~644/665 nm when facing the reactive oxygen species (ROS) in the cytoplasm.
as §6

[7] = system: Naegleria fowleri ATCC 30808™ trophozoites; test: Chromatin condensation (Hoechst 33342/PI double stain); type: cell-based; conditions: IC90 (2.45 µM), 24 h
Procedure: as §5
The condensed chromatin was detected with the double-stain apoptosis detection kit (Hoechst 33342/PI) (Life Technologies, Madrid, Spain). The Hoechst 33342 stain emits blue fluorescence in the presence of condensed chromatin while the Propidium iodide (PI) is able to travel through the membrane of dead cells and emit a red fluorescence.
as §6

[8] = In vitro cytotoxicity (alamarBlue); type: cell-based, murine; conditions: mouse
Procedure: as §4

[9] = Naegleria fowleri, ATCC30808, 48 h
[10] = J774.A1 murine macrophage cell line (ATCC TIB-67), alamarBlue, 24 h, 37 °C, read-out: 50% cytotoxic concentration (CC50) against murine macrophages J774.A1
[11] = Naegleria fowleri, ATCC30215, 48 h

SMILES: C=C1CC(O)C(Br)C(C)(C)C12CCC(C)=C(Cl)C2 (single isomer, unassigned; (-)) [(−)-Elatol (2), (−)-elatol]
CC50 [1]: > 150 µM
IC50 (N. fowleri ATCC 30215™; 48 h): 38 ± 7.61 µM
fold less potent than (+)-elatol (1) (N. fowleri ATCC 30808™; IC50 ratio against N. fowleri trophozoites): 34 fold
IC50 (N. fowleri ATCC 30808™): 36.8 ± 8.03 µM

SMILES: C=C1CC(O)C(Br)C(C)(C)C12CCC(C)=C(Cl)C2 (single isomer, unassigned; (+)) [(+)-Elatol (1), (+)-elatol]
CC50 [1]: 61.5 ± 13 µM
plasma membrane permeability (SYTOX Green fluorescence) [2]: plasma membrane is damaged in treated cells
mitochondrial membrane potential (JC-1) [3]: depolymerization of the mitochondrial membrane potential
reduction of ATP production compared to untreated cells [4]: 82.11%
IC50 (N. fowleri ATCC 30215™; 48 h): 1.14 ± 0.09 µM
IC50 [5]: 1.14 µM
ROS generation (CellROX Deep Red) [6]: induces the over-generation of ROS
chromatin condensation (Hoechst 33342 fluorescence) [7]: intense blue fluorescence
propidium iodide staining (red fluorescence) [7]: absence of the red fluorescence
IC90 (N. fowleri ATCC 30808™; Naegleria fowleri, ATCC30808, ATCC 30808™ strain): 2.45 µM
IC50 (N. fowleri ATCC 30808™): 1.08 ± 0.09 µM

SMILES: C=C1C[C@H](O)CC(C)(C)[C@@]12CCC(C)=C(Cl)C2 [(+)-Debromoelatol (3), (+)-debromoelatol]
IC50 (N. fowleri ATCC 30808™; [9]): > 98.1 µM

SMILES: C[C@@H]1[C@H](O)[C@@H](C)/C=C/C=C/C=C/C=C/C=C/C=C/C=C/[C@H](O[C@@H]2O[C@H](C)[C@@H](O)[C@H](N)[C@@H]2O)C[C@@H]2O[C@](O)(C[C@@H](O)C[C@@H](O)[C@H](O)CC[C@@H](O)C[C@@H](O)CC(=O)O[C@H]1C)C[C@H](O)[C@H]2C(=O)O [Amphotericin B, reference compound]
CC50 at 24 h [8, 10]: > 200 µM
IC50 (N. fowleri ATCC 30808™; [9]): 0.12 ± 0.03 µM

SMILES: CCCCCCCCCCCCCCCCOP(=O)([O-])OCC[N+](C)(C)C [Miltefosine, reference compound]
CC50 at 24 h [8, 10]: 128 ± 8.85 µM
IC50 (N. fowleri ATCC 30215™; [11]): 81.6 ± 7.23 µM
IC50 (N. fowleri ATCC 30808™; [9]): 38.7 ± 4.23 µM

The next lines start with results.

IC50 (N. fowleri ATCC 30808™; [9]): > 62.7 µM
SMILES: C=C1CC[C@@H](Br)C(C)(C)[C@@]12CC[C@@](C)(Br)[C@H](Cl)C2 [(+)-Obtusane (10), (+)-obtusane]

IC50 (N. fowleri ATCC 30808™; [9]): > 71.1 µM
SMILES: C=C1C[C@@H](O)[C@@H](Br)C(C)(C)[C@]12CC[C@@](C)(O)[C@@H](Cl)C2 [(+)-Dendroidiol (7), (−)-dendroidiol]

IC50 (N. fowleri ATCC 30808™; [9]): > 60.3 µM
SMILES: C=C1C[C@@H](O)[C@@H](Br)C(C)(C)[C@]12CC[C@@](C)(Cl)[C@H](Br)C2 [(−)-Cartilagineol (8), (−)-cartilagenol]

IC50 (N. fowleri ATCC 30808™; [9]): > 60.3 µM
SMILES: C=C1C[C@@H](O)[C@@H](Br)C(C)(C)[C@]12CC[C@](C)(Br)[C@@H](Cl)C2 [(+)-Obtusol (9), (+)-obtusol]

IC50 (N. fowleri ATCC 30808™; [9]): > 62.7 µM
SMILES: CC1=CC[C@@H](Br)C(C)(C)[C@]12CC[C@](C)(Br)[C@@H](Cl)C2 [(−)-3,10-dibromo-4-chloro-alpha-chamigrane]

IC50 (N. fowleri ATCC 30808™; [9]): > 83.5 µM
SMILES: C=C1C[C@H](O)[C@H](Br)C(C)(C)[C@]12CC=C(C)CC2 [(+)-Dechloroelatol (4), (+)-dechloroelatol]

IC50 (N. fowleri ATCC 30215™; [11]): 9.71 ± 0.82 µM
IC50 (N. fowleri ATCC 30808™; [9]): 22.5 ± 5.81 µM
SMILES: C=C1CC(O)C(Br)C(C)(C)C12CCC(C)(Cl)C(Br)C2 (single isomer, unassigned; (-)) [(−)-Rogiolol (5), (−)-rogiolol]
CC50 at 24 h ([8]; 50% cytotoxic concentration (CC50) against murine macrophages J774.A1): 142 ± 17.2 µM
